Measured values published in patent US20260191858A1, “COMBINATION THERAPIES” (Kallyope, Inc., priority 2022, published 2026).

Assays:
human GPR40 = biological target: T1, human GPR40 (Homo sapiens, UniProt O14842); experiment: Inositol phosphate accumulation assay in CHO-K1 cells expressing human GPR40; assay type: cell-based; conditions: CHO-K1 human GPR40, IP1 HTRF, 90 min
T1 construct: host or cells: CHO-K1
Experimental: CHO-K1 cells expressing human GPR40 were purchased from DiscoverX (95-1005C2). HEK293 cells expressing mouse FFAR1 were prepared using a mouse FFAR1 carrying plasmid purchased from OriGene Technologies (MR222997). The cells were transfected using Lipofectamine 2000 using manufacturer instructions and stable cell line was established from a single cell using geneticine selection. Assay ready frozen (ARF) cells were prepared and used throughout the study.
The assay was performed in a 384-well plate format using IP1 assay kit from Cis-Bio. ARF cells expressing FFAR1 (mouse and human) were thawed, washed and then plated in the appropriate medium (F12 based medium for CHO hFFAR1 and DMEM based medium for HEK293 mFFAR1—both were supplemented with 10% FBS and penicillin/streptomycin). 20 μL of 3.5×10^5 cells/mL were plated on a Poly D-Lysine coated 384-well white plate. The cells were then incubated for 16 hr at 37° C./5% CO2. After 16 hr the medium was removed and 15 μL of stimulation buffer containing the test compounds was added to the cells. The plates were then incubated for 90 min at 37° C./5% CO2. 5 μL of detection buffer (prepared as described in the IP-one kit) was added to each well and the plates were incubated at RT for 1 hr.
[…] was measured using ClarioSTAR plate reader, calculating the ratio between emissions at 665 nm and 620 nm (HTRF ratio). HTRF ratio for positive (Max) and negative (Min) controls were used to normalize HTRF data and generate values for % activity. EC50 and Max activity values were determined using a standard 4-parameter fit.

male C57BL/6J mice = experiment: Glucose excursion during oral glucose tolerance test in mice; assay type: in vivo; conditions: OGTT in mice
Experimental: The effects of GPR40 agonists of Formula (B) and a GPR119 agonist of Formula (A) alone and in combination on glucose excursion during an oral glucose tolerance test were assessed in mice. The effects of the combination of a compound of Formula (A) and compounds of Formula (B) with linagliptin (a DPP-4 inhibitor) or metformin were also assessed. Male C57BL/6J mice, approximately 10 weeks old, were acclimated to the facility and the oral dosing procedure. Mice were randomized into balanced treatment groups using body weight. Baseline glucose was assessed immediately before compound administration. […] Blood was assessed for glucose levels 20 min, 40 min, 60 min, and 120 min post D-(+)-glucose administration. The AUCs for blood glucose measures were calculated for each treatment from 0 to 120 min. Statistical analysis was performed on AUCs using one-way ANOVA versus vehicle, with Tukey's post-test.

human GPR119 (hGPR119) = biological target: T2, human GPR119 (hGPR119) (Homo sapiens, UniProt Q8TDV5); experiment: cAMP accumulation assay in CHO-K1 cells stably expressing hGPR119; assay type: cell-based; conditions: cAMP HTRF, 60 minutes
T2 construct: expressed in transfected cells; host or cells: CHO-K1
T2 sequence (Q8TDV5 1-335): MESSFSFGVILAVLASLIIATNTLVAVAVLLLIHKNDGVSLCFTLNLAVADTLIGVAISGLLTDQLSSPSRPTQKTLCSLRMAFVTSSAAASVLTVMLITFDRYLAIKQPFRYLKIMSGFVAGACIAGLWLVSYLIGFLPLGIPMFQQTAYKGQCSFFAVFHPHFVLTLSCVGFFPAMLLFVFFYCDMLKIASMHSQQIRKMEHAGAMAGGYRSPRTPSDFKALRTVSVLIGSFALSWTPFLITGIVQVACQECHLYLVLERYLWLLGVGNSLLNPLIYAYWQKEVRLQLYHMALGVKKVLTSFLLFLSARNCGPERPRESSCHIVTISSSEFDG
Summary of the method: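 Assay-ready frozen CHO-K1 cells stably expressing hGPR119, ~10,000 cells/well, were exposed to compounds for 60 min at 37 °C in stimulation buffer with Tween 80. cAMP was measured by HTRF (665/620 nm ratio) and normalized to Max/Min controls as % activity. EC50 and Max activity came from a 4-parameter fit.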

T1 sequence (O14842 whole entry): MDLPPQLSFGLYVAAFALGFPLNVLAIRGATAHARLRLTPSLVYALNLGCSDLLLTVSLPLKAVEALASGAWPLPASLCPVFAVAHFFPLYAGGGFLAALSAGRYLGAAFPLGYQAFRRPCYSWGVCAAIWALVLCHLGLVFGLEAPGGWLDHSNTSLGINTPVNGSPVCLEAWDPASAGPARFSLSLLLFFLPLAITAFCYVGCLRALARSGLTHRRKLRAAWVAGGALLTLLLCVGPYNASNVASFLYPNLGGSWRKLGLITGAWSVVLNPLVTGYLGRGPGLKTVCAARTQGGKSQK

Row | SMILES | EC50 (human GPR40) [µM] | EC50 (human GPR119 (hGPR119)) [µM] | other results
1 | COc1ccc(CCCC(C)(C)C)c(N2CCC(COc3cccc([C@H](C)CP(C)(=O)O)c3)CC2)c1 [Compound B10, ((S)-2-(3-((1-(2-(4,4-dimethylpentyl)-5-methoxyphenyl)piperidin-4-yl)methoxy)phenyl)propyl)(methyl) phosphinic acid] | ≤ 0.05 | – | –
2 | COc1ccc(CCCC(C)(C)C)c(N2CCC(COc3cc([C@H](C)CP(C)(=O)O)ccn3)CC2)c1 [Compound B9, ((S)-2-(2-((1-(2-(4,4-dimethylpentyl)-5-methoxyphenyl)piperidin-4-yl)methoxy)pyridin-4-yl)propyl)(methyl)phosphinic acid] | 0.25 to 1 | – | –
3 | COc1ccc(F)c([C@H]2CC[C@H](COc3cccc([C@@H](C[P@@](C)(=O)O)C4CC4)c3)CC2)c1 (single isomer, unassigned) [Compound B4] | 0.05 to 0.25 | – | –
4 | COc1ccc(CCCC(C)(C)C)c(N2CCC(COc3cccc([C@@H](CP(C)(=O)O)C4CC4)c3)CC2)c1 [Compound B6, ((S)-2-cyclopropyl-2-(3-((1-(2-(4,4-dimethylpentyl)-5-methoxyphenyl)piperidin-4-yl)methoxy)phenyl)ethyl)(methyl)phosphinic acid] | ≤ 0.05 | – | –
5 | COc1ccc(F)c([C@H]2CC[C@H](COc3cccc([C@H](C[P@@](C)(=O)O)C4CC4)c3)CC2)c1 (single isomer, unassigned) [Compound B3] | ≤ 0.05 | – | –
6 | CN(C)C(=N)N=C(N)N [metformin] | – | – | post-prandial glucose excursion (male C57BL/6J mice): suppressed post-prandial glucose excursion
7 | COc1ccc(CCCC(C)(C)C)c(N2CCC(COc3cc([C@@H](C)CP(C)(=O)O)ccn3)CC2)c1 [Compound B8, ((R)-2-(2-((1-(2-(4,4-dimethylpentyl)-5-methoxyphenyl)piperidin-4-yl)methoxy)pyridin-4-yl)propyl)(methyl)phosphinic acid] | ≤ 0.05 | – | –
8 | CC[C@@H](Cc1cccc(OCC2CCN(c3cc(OC)ccc3CCCC(C)(C)C)CC2)c1)P(C)(=O)O [Compound B12, ((S)-1-(3-((1-(2-(4,4-dimethylpentyl)-5-methoxyphenyl)piperidin-4-yl)methoxy)phenyl)butan-2-yl)(methyl)phosphinic acid] | 0.25 to 1 | – | –
9 | COc1ccc(CCCC(C)(C)C)c(N2CCC(COc3cccc([C@@H](C)CP(C)(=O)O)c3)CC2)c1 [Compound B11, ((R)-2-(3-((1-(2-(4,4-dimethylpentyl)-5-methoxyphenyl)piperidin-4-yl)methoxy)phenyl)propyl)(methyl) phosphinic acid] | 0.05 to 0.25 | – | –
10 | COc1ccc(CCCC(C)(C)C)c(N2CCC(COc3cc([C@@H](CP(C)(=O)O)C4CC4)ccn3)CC2)c1 [Compound B7, ((S)-2-cyclopropyl-2-(2-((1-(2-(4,4-dimethylpentyl)-5-methoxyphenyl)piperidin-4-yl)methoxy)pyridin-4-yl)ethyl)(methyl)phosphinic acid] | ≤ 0.05 | – | –
11 | CC[C@H](Cc1cccc(OCC2CCN(c3cc(OC)ccc3CCCC(C)(C)C)CC2)c1)P(C)(=O)O [Compound B13, ((R)-1-(3-((1-(2-(4,4-dimethylpentyl)-5-methoxyphenyl)piperidin-4-yl)methoxy)phenyl)butan-2-yl)(methyl)phosphinic acid] | 0.25 to 1 | – | –
12 | COc1ccc(F)c([C@H]2CC[C@H](COc3cc([C@@H](CP(C)(=O)O)C4CC4)ccn3)CC2)c1 [Compound B5, ((S)-2-cyclopropyl-2-(2-(((trans)-4-(2-fluoro-5-methoxyphenyl)cyclohexyl)methoxy)pyridin-4-yl)ethyl)(methyl)phosphinic acid] | ≤ 0.05 | – | –
13 | O=C(CC1(O)CN(C(=O)Cc2ccc(OCCCC3CCN(c4ncc(Cl)cn4)CC3)cc2F)C1)NCC(CO)(CO)CO [Compound A71, 2-[1-[2-[4-[3-[1-(5-chloropyrimidin-2-yl)-4-piperidyl]propoxy]-2-fluoro-phenyl]acetyl]-3-hydroxy-azetidin-3-yl]-N-[3-hydroxy-2,2-bis(hydroxymethyl)propyl]acetamide] | – | ≤ 0.1 | –
14 | CCc1cnc(N2CCC(CCCOc3cc(F)c(CC(=O)N4CC(CNCCNC(=O)NC(CO)(CO)CO)C4)c(F)c3)CC2)nc1 [Compound A38, 1-(1,3-dihydroxy-2-(hydroxymethyl)propan-2-yl)-3-(2-(((1-(2-(4-(3-(1-(5-ethylpyrimidin-2-yl)piperidin-4-yl)propoxy)-2,6-difluorophenyl)acetyl)azetidin-3-yl)methyl)amino)ethyl)urea] | – | ≤ 0.1 | –
15 | O=C(CC1CN(C(=O)Cc2ccc(OCCCC3CCN(c4ncc(Cl)cn4)CC3)cc2F)C1)NCCCS(=O)(=O)O [Compound A69, 3-[[2-[1-[2-[4-[3-[1-(5-chloropyrimidin-2-yl)-4-piperidyl]propoxy]-2-fluoro-phenyl]acetyl]azetidin-3-yl]acetyl]amino]propane-1-sulfonic acid] | – | 0.1 to 1 | –
16 | CCc1cnc(N2CCC(CCCOc3ccc(CC(=O)N4CC(CNCC(CO)CO)C4)c(F)c3)CC2)nc1 [Compound A32, 2-(4-(3-(1-(5-ethylpyrimidin-2-yl)piperidin-4-yl)propoxy)-2-fluorophenyl)-1-(3-(((3-hydroxy-2-(hydroxymethyl)propyl)amino)methyl)azetidin-1-yl)ethan-1-one] | – | 0.1 to 1 | –
17 | CCCc1cnc(N2CCC(CCCOc3ccc(CC(=O)N4CC(CNCCNC(=O)NC(CO)(CO)CO)C4)c(F)c3)CC2)nc1 [Compound A43, 1-(1,3-dihydroxy-2-(hydroxymethyl)propan-2-yl)-3-(2-(((1-(2-(2-fluoro-4-(3-(1-(5-propylpyrimidin-2-yl)piperidin-4-yl)propoxy)phenyl)acetyl)azetidin-3-yl)methyl)amino)ethyl)urea] | – | 0.1 to 1 | –
18 | O=C(Cc1ccc(OCCCC2CCN(c3ncc(Cl)cn3)CC2)cc1F)N1CC(CNC[C@H](O)[C@H](O)[C@H](O)CO)C1 [Compound A60, 2-[4-[3-[1-(5-chloropyrimidin-2-yl)-4-piperidyl]propoxy]-2-fluoro-phenyl]-1-[3-[[[(2S,3S,4R)-2,3,4,5-tetrahydroxypentyl]amino]methyl]azetidin-1-yl]ethanone] | – | ≤ 0.1 | –
19 | O=C(NCCCCCCS(=O)(=O)O)C1CN(C(=O)Cc2ccc(OCCCC3CCN(c4ncc(Cl)cn4)CC3)cc2F)C1 [Compound A67, 6-[[1-[2-[4-[3-[1-(5-chloropyrimidin-2-yl)-4-piperidyl]propoxy]-2-fluoro-phenyl]acetyl]azetidine-3-carbonyl]amino]hexane-1-sulfonic acid] | – | 0.1 to 1 | –
20 | CCOc1cnc(N2CCC(CCCOc3ccc(CC(=O)N4CC(CNC[C@H](O)[C@@H](O)[C@H](O)[C@H](O)CO)C4)c(F)c3)CC2)nc1 (racemic) [Compound A50, 2-[4-[3-[1-(5-ethoxypyrimidin-2-yl)-4-piperidyl]propoxy]-2-fluoro-phenyl]-1-[3-[[[rac-(2S,3R,4R,5R)-2,3,4,5,6-pentahydroxyhexyl]amino]methyl]azetidin-1-yl]ethanone] | – | 0.1 to 1 | –
